Laboratory results reported in patent publication US6281342A, “Pradimicin compounds” (Bristol-Myers Squibb Company, priority 1994, dated 2001).
Values after ≈ are worked out from the molar mass of the structure shown. Where two headings read alike, the source gives them in different places.

How the values were obtained:
[1] = test system: Saccharomyces cerevisiae ATCC 9763; assay: MIC, two-fold agar dilution, S. cerevisiae ATCC 9763; assay type: cell-based; conditions: ATCC9763, YMA pH 7.0, 28° C., 40 hours
Procedure: (§1) Minimum inhibitory concentrations (MICs) of nine 4'-N-substituted pradimicin derivatives were determined by two-fold agar dilution method on phosphate-buffered yeast morphology agar (YMA, pH 7.0, Difco Laboratories). A 5-μl of fungal cell suspension containing 2×10^6 cells/ml (2×10^7 cells/ml for Trichophyton mentagrophytes) were spotted on the surface of the agar plates containing test compound. MICs were recorded after 40-hour incubation at 28° C. except for T. mentagrophytes, which required 60-hour incubation to produce visually evaluable growth on the drug-free control plates and were defined as the lowest antibiotic concentrations showing no growth or less than five discrete colonies per spot.
(§2) Medium: yeast morphology agar + 1/15 M phosphate buffer (pH 7.0)
(§3) Incubation conditions: 28° C., 40 hours (C. albicans ATCC 38247 & T.
(§4) Medium: Yeast morphology agar + 1/15 phosphate buffer (pH 7.0).

[2] = test system: Candida albicans IAM 4888; assay: MIC, two-fold agar dilution, C. albicans IAM 4888; assay type: cell-based; conditions: IAM4888, YMA pH 7.0, 28° C., 40 hours
Procedure: as §1, §2, §3, §4

Candida albicans A9540 [3] = assay: MIC, two-fold agar dilution, C. albicans A9540; assay type: cell-based
Procedure: as §1, §2, §3, §4

[4] = test system: Candida albicans ATCC 38247; assay: MIC, two-fold agar dilution, C. albicans ATCC 38247; assay type: cell-based; conditions: ATCC38247, YMA pH 7.0, 28° C., 60 hours (table footnote)
Procedure: as §1, §2, §3
(§5) mentagrophytes #4329: 28° C., 60 hours).
as §4

[5] = test system: Candida albicans ATCC 32354; assay: MIC, two-fold agar dilution, C. albicans ATCC 32354; assay type: cell-based; conditions: ATCC32354, YMA pH 7.0, 28° C., 40 hours
Procedure: as §1, §2, §3, §4

Candida albicans 83-2-14 = assay: MIC, two-fold agar dilution, C. albicans 83-2-14; assay type: cell-based; conditions: 83214, YMA pH 7.0, 28° C., 40 hours
Procedure: as §1, §2, §3, §4

Candida tropicalis 85-8 = assay: MIC, two-fold agar dilution, C. tropicalis 85-8; assay type: cell-based; conditions: 858, YMA pH 7.0, 28° C., 40 hours
Procedure: as §1, §2, §3, §4

[6] = test system: Candida tropicalis IFO 10241; assay: MIC, two-fold agar dilution, C. tropicalis IFO 10241; assay type: cell-based; conditions: IFO10241, YMA pH 7.0, 28° C., 40 hours
Procedure: as §1, §2, §3, §4

[7] = test system: Cryptococcus neoformans D49; assay: MIC, two-fold agar dilution, C. neoformans D49; assay type: cell-based; conditions: YMA pH 7.0, 28° C., 40 hours
Procedure: as §1, §2, §3, §4

[8] = test system: Cryptococcus neoformans IAM 4514; assay: MIC, two-fold agar dilution, C. neoformans IAM 4514; assay type: cell-based; conditions: IAM4514
Procedure: as §1, §2, §3, §4

[9] = test system: Aspergillus fumigatus IAM 2034; assay: MIC, two-fold agar dilution, A. fumigatus IAM 2034; assay type: cell-based; conditions: IAM2034
Procedure: as §1, §2, §3, §4

[10] = test system: Trichophyton mentagrophytes #4329; assay: MIC, two-fold agar dilution, T. mentagrophytes #4329; assay type: cell-based
Procedure: as §1, §2, §3, §5, §4

Candida albicans A9540 [11] = assay: animal or person; assay type: in vivo, male ICR mice infected with Candida albicans A9540; conditions: Candida albicans, A9540, 480 h, C. albicans, mice; for responders at 6.3 mg/kg: 6.3 mg/kg iv; for responders at 6.3 mg/kg / responders at 12.5 mg/kg / responders at 25 mg/kg / responders at 50 mg/kg: 20th day post-infection, read-out: S/T (No. of survivors/tested) (converted); for responders at 12.5 mg/kg: 12.5 mg/kg iv; for responders at 25 mg/kg: 25 mg/kg iv; for responders at 50 mg/kg: 50 mg/kg iv; for ED50: Table 2, iv, 95% confidence limits in parentheses, read-out: PD50 (50% protection dose)
Procedure: (§6) The in vivo therapeutic efficacies of seven 4'-N-substituted pradimicin derivatives, KHM-1, KHM-2, KHM-3, KHM-4, KHM-5, KHM-6 and KHM-7 were evaluated in the mouse infected with Candida albicans A9540 and Aspergillus fumigatusIAM 2034. Groups of five specific-pathogen-free male ICR mice weighing 20-25 g at each dose level were intravenously infected with approximately 10 times the 50% lethal dose of C. albicans A9540 (1×10^6 cells/mouse) or A. fumigatus IAM 2034 (1×10^7 cells/mouse). Immediately after the fungal infection, test compounds dissolved with 10% DMSO in distilled water were intravenously given to the mouse at the dosed volume of 0.1 ml/10 g of body weight. […] Untreated control animals died 7 to 13 days post-infection.

[12] = test system: Aspergillus fumigatus IAM 2034; assay: Therapeutic efficacy in Aspergillus fumigatus systemic infection in mice; assay type: in vivo, male ICR mice infected with Aspergillus fumigatus IAM 2034; conditions: IAM2034, 480 h; for responders at 6.3 mg/kg: 6.3 mg/kg iv; for responders at 6.3 mg/kg / responders at 12.5 mg/kg / responders at 25 mg/kg / responders at 50 mg/kg: 20th day post-infection, read-out: S/T (No. of survivors/tested) (converted); for responders at 12.5 mg/kg: 12.5 mg/kg iv; for responders at 25 mg/kg: 25 mg/kg iv; for responders at 50 mg/kg: 50 mg/kg iv
Procedure: as §6

[13] = Water solubility at neutral pH in PBS containing Ca^2+/Mg^2+; assay type: physicochemical; conditions: pbs with ca2+/mg2+; Table 3; water-solubility at neutral pH in phosphate buffered saline containing Ca^2+/Mg^2+
Procedure: The compounds of the invention have good water solubility. Typically, the water solubility is greater than 10 mg/ml when measured at neutral pH in PBS containing Ca^2+ /Mg^2+, preferably greater than 20 mg/ml.
^2) Water-solubility at neutral pH in phosphate buffered saline
containing Ca^2+ /Mg^2+.

[14] = Candida albicans A9540, YMA pH 7.0, 28° C., 40 hours, read-out: MIC
[15] = Table 3, Candida albicans A9540, YMA, read-out: MIC Ca-4
[16] = Cryptococcus neoformans IAM 4514, YMA pH 7.0, 28° C., 40 hours, read-out: MIC
[17] = Table 3, Cryptococcus neoformans IAM 4514, YMA, read-out: MIC Cn-2
[18] = Aspergillus fumigatus IAM 2034, YMA pH 7.0, 28° C., 40 hours, read-out: MIC
[19] = Table 3, Aspergillus fumigatus IAM 2034, YMA, read-out: MIC Af-3
[20] = Table 3, Trichophyton mentagrophytes #4329, YMA, read-out: MIC TM-4
[21] = Trichophyton mentagrophytes #4329, YMA pH 7.0, 28° C., 60 hours, read-out: MIC
[22] = Aspergillus fumigatus, A. fumigatus, mice
[23] = Aspergillus fumigatus, Table 2, A. fumigatus, mice, iv, 95% confidence limits in parentheses, read-out: PD50 (50% protection dose)

Question: For COc1cc(O)c2c(c1)C(=O)c1c(cc3c(c1O)-c1c(cc(C)c(C(=O)N[C@H](C)C(=O)O)c1O)[C@H](O[C@@H]1O[C@H](C)[C@H](NC#N)[C@H](O[C@@H]4OC[C@@H](O)[C@H](O)[C@H]4O)[C@H]1O)[C@H]3O)C2=O [KHM-2, 4'-N-Cyanopradimicin C], which MIC [1] is on record?
Answer: 3.1 µg/mL (≈ 3.64 µM)

Question: What about the MIC [2] of the same molecule?
Answer: 3.1 µg/mL (≈ 3.64 µM)

Question: And the MIC (Candida albicans A9540 [3]; [14])?
Answer: 3.1 µg/mL (≈ 3.64 µM)

Question: And the MIC (Candida albicans A9540 [3]; [15])?
Answer: 3.1 µg/mL (≈ 3.64 µM)

Question: And the MIC [4]?
Answer: 1.6 µg/mL (≈ 1.88 µM)

Question: What about the MIC [5] of the same molecule?
Answer: 3.1 µg/mL (≈ 3.64 µM)

Question: What about the MIC (Candida albicans 83-2-14) of the same molecule?
Answer: 6.3 µg/mL (≈ 7.4 µM)

Question: And the MIC (Candida tropicalis 85-8)?
Answer: 12.5 µg/mL (≈ 14.7 µM)

Question: What about the MIC [6] of the same molecule?
Answer: 12.5 µg/mL (≈ 14.7 µM)

Question: And the MIC [7]?
Answer: 3.1 µg/mL (≈ 3.64 µM)

Question: What about the MIC [8, 16] of the same molecule?
Answer: 1.6 µg/mL (≈ 1.88 µM)

Question: And the MIC [8, 17]?
Answer: 1.6 µg/mL (≈ 1.88 µM)

Question: And the MIC [9, 18]?
Answer: 3.1 µg/mL (≈ 3.64 µM)

Question: What about the MIC [9, 19] of the same molecule?
Answer: 3.1 µg/mL (≈ 3.64 µM)

Question: And the MIC [10, 20]?
Answer: 12.5 µg/mL (≈ 14.7 µM)

Question: And the MIC [10, 21]?
Answer: 12.5 µg/mL (≈ 14.7 µM)

Question: What about the responders at 6.3 mg/kg (Candida albicans A9540 [11]) of the same molecule?
Answer: 20%

Question: What about the responders at 12.5 mg/kg (Candida albicans A9540 [11]) of the same molecule?
Answer: 40%

Question: And the responders at 25 mg/kg (Candida albicans A9540 [11])?
Answer: 80%

Question: And the responders at 50 mg/kg (Candida albicans A9540 [11])?
Answer: 100%

Question: And the ED50 (Candida albicans A9540 [11])?
Answer: 13 mg/kg

Question: What about the responders at 6.3 mg/kg [12, 22] of the same molecule?
Answer: 0%

Question: And the responders at 12.5 mg/kg [12, 22]?
Answer: 20%

Question: What about the responders at 25 mg/kg [12, 22] of the same molecule?
Answer: 40%

Question: And the responders at 50 mg/kg [12, 22]?
Answer: 60%

Question: What about the ED50 [12, 23] of the same molecule?
Answer: 27 mg/kg

Question: And the solubility [13]?
Answer: > 20 mg/mL

Question: For COc1cc(O)c2c(c1)C(=O)c1c(cc3c(c1O)-c1c(cc(C)c(C(=O)N[C@H](CO)C(=O)O)c1O)[C@H](O[C@@H]1O[C@H](C)[C@H](NC#N)[C@H](O[C@@H]4OC[C@@H](O)[C@H](O)[C@H]4O)[C@H]1O)[C@H]3O)C2=O [KHM-4, 4'-N-Cyanopradimicin FA2], which MIC [1] is on record?
Answer: 3.1 µg/mL (≈ 3.57 µM)

Question: What about the MIC [2] of the same molecule?
Answer: 6.3 µg/mL (≈ 7.26 µM)

Question: What about the MIC (Candida albicans A9540 [3]; [14]) of the same molecule?
Answer: 6.3 µg/mL (≈ 7.26 µM)

Question: And the MIC (Candida albicans A9540 [3]; [15])?
Answer: 6.3 µg/mL (≈ 7.26 µM)

Question: And the MIC [4]?
Answer: 3.1 µg/mL (≈ 3.57 µM)

Question: What about the MIC [5] of the same molecule?
Answer: 3.1 µg/mL (≈ 3.57 µM)

Question: What about the MIC (Candida albicans 83-2-14) of the same molecule?
Answer: 6.3 µg/mL (≈ 7.26 µM)

Question: And the MIC (Candida tropicalis 85-8)?
Answer: 12.5 µg/mL (≈ 14.4 µM)

Question: And the MIC [6]?
Answer: 12.5 µg/mL (≈ 14.4 µM)

Question: And the MIC [7]?
Answer: 6.3 µg/mL (≈ 7.26 µM)

Question: And the MIC [8, 16]?
Answer: 3.1 µg/mL (≈ 3.57 µM)

Question: And the MIC [8, 17]?
Answer: 3.1 µg/mL (≈ 3.57 µM)

Question: What about the MIC [9, 18] of the same molecule?
Answer: 6.3 µg/mL (≈ 7.26 µM)

Question: What about the MIC [9, 19] of the same molecule?
Answer: 6.3 µg/mL (≈ 7.26 µM)

Question: And the MIC [10, 20]?
Answer: 12.5 µg/mL (≈ 14.4 µM)

Question: And the MIC [10, 21]?
Answer: 12.5 µg/mL (≈ 14.4 µM)

Question: And the responders at 6.3 mg/kg (Candida albicans A9540 [11])?
Answer: 0%

Question: What about the responders at 12.5 mg/kg (Candida albicans A9540 [11]) of the same molecule?
Answer: 20%

Question: And the responders at 25 mg/kg (Candida albicans A9540 [11])?
Answer: 60%

Question: And the responders at 50 mg/kg (Candida albicans A9540 [11])?
Answer: 80%

Question: What about the ED50 (Candida albicans A9540 [11]) of the same molecule?
Answer: 20 mg/kg

Question: What about the responders at 6.3 mg/kg [12, 22] of the same molecule?
Answer: 0%

Question: What about the responders at 12.5 mg/kg [12, 22] of the same molecule?
Answer: 0%

Question: And the responders at 25 mg/kg [12, 22]?
Answer: 0%

Question: What about the responders at 50 mg/kg [12, 22] of the same molecule?
Answer: 0%

Question: What about the ED50 [12, 23] of the same molecule?
Answer: > 50 mg/kg

Question: And the ED50 ([12]; Table 3, Aspergillus fumigatus IAM 2034, iv, read-out: PD50 (mice) Af-3)?
Answer: > 50 mg/kg

Question: And the solubility [13]?
Answer: > 20 mg/mL
